Measurements: patent US20050282159A1, “Rpob gene of streptomyces, primer specific to streptomyces, and identification method of streptomyces having rifampin resistance or sensitivity by using the same” (priority 2001, published 2005)

What was measured:
Assay in all cases: rifampin-sensitive test on Bennet solid media
Assay type in all cases: cell-based
Design in all cases: key: “(+)” indicates a genotype with rifampin-resistance; “(−)” indicates a genotype with rifampin-susceptibility
[1] = system: S. albogriseolus KCTC 9773; conditions: AAC genotype, 25 ug/ml rifampin, 72 hr
Protocol: (§1) The 47 strains were respectively cultured at 28° C. for 72 hr in Bennet liquid media. The culture solution was then inoculated on Bennet solid media (yeast extract 1 g/L, Beef extract 1 g/L, Tryptone 2 g/L, Glycerol 10 g/L, Agar 15 g/L) containing 25 ug/ml rifampin, and after incubation for 72 hr, rifampin-resistance was tested.

S. armeniacus KCTC 9120 = conditions: AAC genotype, 25 ug/ml rifampin, 72 hr
Protocol: as §1

S. galilaeus KCTC 1919 = conditions: AAC genotype, 25 ug/ml rifampin, 72 hr
Protocol: as §1

S. coelicolor KCTC 9005 = conditions: AAC genotype, 25 ug/ml rifampin, 72 hr
Protocol: as §1

S. catenulae KCTC 9223 = conditions: TCG (TCC) genotype, 25 ug/ml rifampin, 72 hr
Protocol: as §1

S. carpinensis KCTC 9128 = conditions: TCG (TCC) genotype, 25 ug/ml rifampin, 72 hr
Protocol: as §1

S. bacillaris KCTC 9018 = conditions: TCG (TCC) genotype, 25 ug/ml rifampin, 72 hr
Protocol: as §1

S. albulus KCTC 9668 = conditions: TCG (TCC) genotype, 25 ug/ml rifampin, 72 hr
Protocol: as §1

S. abikoensis KCTC 9662 = conditions: TCG (TCC) genotype, 25 ug/ml rifampin, 72 hr
Protocol: as §1

[2] = system: S. chrysomallus KCTC 9705; conditions: TCG (TCC) genotype, 25 ug/ml rifampin, 72 hr
Protocol: as §1

S. spectabilis KCTC 9218 = conditions: AAC genotype, 25 ug/ml rifampin, 72 hr
Protocol: as §1

[3] = system: S. chattanoogensis KCTC 1087; conditions: TCG (TCC) genotype, 25 ug/ml rifampin, 72 hr
Protocol: as §1

[4] = system: S. cacoi asoensis KCTC 9700; conditions: TCG (TCC) genotype, 25 ug/ml rifampin, 72 hr
Protocol: as §1

S. aminophilus KCTC 9673 = conditions: AAC genotype, 25 ug/ml rifampin, 72 hr
Protocol: as §1

[5] = system: S. phaeochromogenes KCTC 9763; conditions: AAC genotype, 25 ug/ml rifampin, 72 hr
Protocol: as §1

S. flaveolus KCTC 9022 = conditions: AAC genotype, 25 ug/ml rifampin, 72 hr
Protocol: as §1

S. acrimycini KCTC 9679 = conditions: AAC genotype, 25 ug/ml rifampin, 72 hr
Protocol: as §1

[6] = system: S. cinereoruber KCTC 9707; conditions: TCG (TCC) genotype, 25 ug/ml rifampin, 72 hr
Protocol: as §1

S. chartreuses KCTC 9704 = conditions: TCG (TCC) genotype, 25 ug/ml rifampin, 72 hr
Protocol: as §1

[7] = system: S. sclerotialus KCTC 9065; conditions: AAC genotype, 25 ug/ml rifampin, 72 hr
Protocol: as §1

S. durhamensis KCTC 9723 = conditions: AAC genotype, 25 ug/ml rifampin, 72 hr
Protocol: as §1

S. flavofuscus KCTC 9737 = conditions: AAC genotype, 25 ug/ml rifampin, 72 hr
Protocol: as §1

S. albus KCTC 1082 = conditions: AAC genotype, 25 ug/ml rifampin, 72 hr
Protocol: as §1

[8] = system: S. bambergiensis KCTC 9019; conditions: TCG (TCC) genotype, 25 ug/ml rifampin, 72 hr
Protocol: as §1

[9] = system: S. cinnamonensis KCTC 9708; conditions: TCG (TCC) genotype, 25 ug/ml rifampin, 72 hr
Protocol: as §1

S. ederensis KCTC 9726 = conditions: AAC genotype, 25 ug/ml rifampin, 72 hr
Protocol: as §1

[10] = system: S. capillispiralis KCTC 1719; conditions: AAC genotype, 25 ug/ml rifampin, 72 hr
Protocol: as §1

## CO[C@H]1/C=C/O[C@@]2(C)Oc3c(C)c(O)c4c(O)c(c(/C=N/N5CCN(C)CC5)c(O)c4c3C2=O)NC(=O)/C(C)=C\C=C\[C@H](C)[C@H](O)[C@@H](C)[C@@H](O)[C@@H](C)[C@H](OC(C)=O)[C@@H]1C [rifampin]
[1]
  genotype (rifampin-resistance or susceptibility): +
S. armeniacus KCTC 9120
  genotype (rifampin-resistance or susceptibility): +
S. galilaeus KCTC 1919
  genotype (rifampin-resistance or susceptibility): +
S. coelicolor KCTC 9005
  genotype (rifampin-resistance or susceptibility): +
S. catenulae KCTC 9223
  genotype (rifampin-resistance or susceptibility): −
S. carpinensis KCTC 9128
  genotype (rifampin-resistance or susceptibility): −
S. bacillaris KCTC 9018
  genotype (rifampin-resistance or susceptibility): −
S. albulus KCTC 9668
  genotype (rifampin-resistance or susceptibility): −
S. abikoensis KCTC 9662
  genotype (rifampin-resistance or susceptibility): −
[2]
  genotype (rifampin-resistance or susceptibility): −
S. spectabilis KCTC 9218
  genotype (rifampin-resistance or susceptibility): +
[3]
  genotype (rifampin-resistance or susceptibility): −
[4]
  genotype (rifampin-resistance or susceptibility): −
S. aminophilus KCTC 9673
  genotype (rifampin-resistance or susceptibility): +
[5]
  genotype (rifampin-resistance or susceptibility): +
S. flaveolus KCTC 9022
  genotype (rifampin-resistance or susceptibility): +
S. acrimycini KCTC 9679
  genotype (rifampin-resistance or susceptibility): +
[6]
  genotype (rifampin-resistance or susceptibility): −
S. chartreuses KCTC 9704
  genotype (rifampin-resistance or susceptibility): −
[7]
  genotype (rifampin-resistance or susceptibility): +
S. durhamensis KCTC 9723
  genotype (rifampin-resistance or susceptibility): +
S. flavofuscus KCTC 9737
  genotype (rifampin-resistance or susceptibility): +
S. albus KCTC 1082
  genotype (rifampin-resistance or susceptibility): +
[8]
  genotype (rifampin-resistance or susceptibility): −
[9]
  genotype (rifampin-resistance or susceptibility): −
S. ederensis KCTC 9726
  genotype (rifampin-resistance or susceptibility): +
[10]
  genotype (rifampin-resistance or susceptibility): +
